For one assay, the target named is T1, DPB1*05:01 (Homo sapiens, UniProt P04440+P20036, A65V/A84E/F191V/F64L/G113D/G114E/K142R/L158P/M116V/M62Q/P115A/Q81R/R125K/T114A/T199I/T259P/V234M).
T1 sequence (P20036 29-260 M62Q/Q81R/T114A/K142R/L158P/F191V/T259P): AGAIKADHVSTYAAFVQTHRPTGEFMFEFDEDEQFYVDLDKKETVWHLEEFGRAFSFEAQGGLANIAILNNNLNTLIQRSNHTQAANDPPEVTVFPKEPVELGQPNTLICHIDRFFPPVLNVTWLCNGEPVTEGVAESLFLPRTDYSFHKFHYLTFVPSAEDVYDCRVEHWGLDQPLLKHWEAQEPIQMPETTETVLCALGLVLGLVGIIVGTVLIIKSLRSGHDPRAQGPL
T1 sequence (P04440 30-258 F64L/A65V/A84E/G113D/G114E/P115A/M116V/R125K/T199I/V234M): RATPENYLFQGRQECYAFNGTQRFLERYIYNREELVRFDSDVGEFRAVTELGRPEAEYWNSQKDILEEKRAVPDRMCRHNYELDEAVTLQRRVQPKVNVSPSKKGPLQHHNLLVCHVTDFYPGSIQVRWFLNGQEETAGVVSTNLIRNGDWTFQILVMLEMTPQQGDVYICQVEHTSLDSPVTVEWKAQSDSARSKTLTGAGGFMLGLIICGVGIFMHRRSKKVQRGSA
Put plainly: competition binding assay, purified HLA DPB1*05:01.

The next assay concerns the target DRB1*01:01 (Homo sapiens, UniProt P01903+P01911, A100R/D57E/F55L/F60I/F76Y/I96L/L162R/M171V/P40L/Q125E/R42F/V115G/Y59C). Nature of the assay: competition binding assay, purified HLA DRB1*01:01.
Another assay has as its target DRB1*04:05 (Homo sapiens, UniProt P01903+P01911, A100R/A169T/D86S/F76Y/I96L/K127E/L162R/M171V/N62H/P40V/Q125Y/R42H/S133A/S149N/S66Y/V115G/V209L/W38E). Put plainly: competition binding assay, purified HLA DRB1*04:05.
Another assay addresses T2, DPB1*03:01 (Homo sapiens, UniProt P04440+P20036, A65V/A84D/A85E/E86D/F38Y/G113D/G114E/G40L/I94L/L37V/M105V/M116V/P115A/R125K/T199I).
T2 sequence (P20036 29-260): T1 sequence (P20036 29-260 M62Q/Q81R/T114A/K142R/L158P/F191V/T259P) with Q34M, R53Q, A86T, R114K, P130L, V163F, P231T
T2 sequence (P04440 30-258 L37V/F38Y/G40L/A65V/A84D/A85E/E86D/I94L/M105V/G113D/G114E/P115A/M116V/R125K/T199I): T1 sequence (P04440 30-258 F64L/A65V/A84E/G113D/G114E/P115A/M116V/R125K/T199I/V234M) with L8V, F9Y, G11L, L35F, E55D, A56E, E57D, I65L, M76V, M205V
Nature of the assay: competition binding assay, purified HLA DPB1*03:01.

For another assay, the target named is DRB4*01:01 (Homo sapiens, UniProt P01903+P13762, G164S). Nature of the assay: competition binding assay, purified HLA DRB4*01:01.
A further assay deals with T3, DPB1*04:02 (Homo sapiens, UniProt P04440+P20036, A65V/A84D/A85E/L207M).
T3 sequence (P04440 30-258 A65V/A84D/A85E/L207M): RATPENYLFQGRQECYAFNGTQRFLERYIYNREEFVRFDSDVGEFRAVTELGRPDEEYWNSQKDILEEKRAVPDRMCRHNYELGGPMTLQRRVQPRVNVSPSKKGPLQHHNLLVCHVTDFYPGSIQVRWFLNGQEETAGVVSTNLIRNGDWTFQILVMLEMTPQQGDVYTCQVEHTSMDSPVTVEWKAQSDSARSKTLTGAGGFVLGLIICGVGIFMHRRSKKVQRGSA
T3 sequence (P20036 29-260): T1 sequence (P20036 29-260 M62Q/Q81R/T114A/K142R/L158P/F191V/T259P) with Q34M, R53Q, A86T, R114K, P130L, V163F, P231T
Put plainly: competition binding assay, purified HLA DPB1*04:02.

Another assay deals with DRB1*07:01 (Homo sapiens, UniProt P01903+P01911, A100R/A102G/A103Q/D57E/D86V/E43K/F76Y/K127E/L162R/M171V/P40G/Q125H/Q99D/R33Q/R42Y/R54Q/S133A/S66F/T210M/V115G/Y107V/Y59L/Y89S). Put plainly: competition binding assay, purified HLA DRB1*07:01.
For the next assay, the target named is DRB1*13:02 (Homo sapiens, UniProt P01903+P01911, A100E/A169T/K41T/L162R/M171V/P40S/Q125H/Q178H/Q39Y/Q99D/R42S/S66N/T262R/V115G/W38E/Y61H). Put plainly: competition binding assay, purified HLA DRB1*13:02.
The next assay has as its target DRB1*12:01 (Homo sapiens, UniProt P01903+P01911, A100R/A169T/D57E/D86V/F55L/H45Y/K41T/L162R/M171V/P40S/Q125H/Q178H/Q39Y/Q99D/R42G/S66L/T262R/V114A/V67L/W38E/Y59H/Y61H/Y89S). Put plainly: competition binding assay, purified HLA DRB1*12:01.
For the next assay, the target named is T4, DPB1*04:01 (Homo sapiens, UniProt P04440).
T4 sequence (P04440 30-258): T3 sequence (P04440 30-258 A65V/A84D/A85E/L207M) with V36A, D55A, E56A, M178L
T4 sequence (P20036 29-260 partner): T1 sequence (P20036 29-260 M62Q/Q81R/T114A/K142R/L158P/F191V/T259P) with Q34M, R53Q, A86T, R114K, P130L, V163F, P231T
Nature of the assay: competition binding assay, purified HLA DPB1*04:01.

The target of another assay is DRB1*09:01 (Homo sapiens, UniProt P01903+P01911, A100R/A103E/D57H/D86V/F55Y/F60I/F76Y/I96F/K127E/L162R/M171V/P40D/Q125H/Q99R/R33Q/R42F/S133A/S66N/T210M/V115G/W38K/Y107V/Y59G/Y89S). Nature of the assay: competition binding assay, purified HLA DRB1*09:01.
The mark [1] stands for this setting: purified HLA, radiolabeled peptide competition, nM, read-out: binding to DRB1*01:01 (IC50).
Where [2] appears, read: purified HLA, radiolabeled peptide competition, nM, read-out: binding to DRB1*04:05 (IC50).
The mark [3] stands for this setting: purified HLA, radiolabeled peptide competition, nM, read-out: binding to DRB4*01:01 (IC50).
Setting [4] is: purified HLA, radiolabeled peptide competition, nM, read-out: binding to DRB1*07:01 (IC50).
Where [5] appears, read: purified HLA, radiolabeled peptide competition, nM, read-out: binding to DRB1*13:02 (IC50).
Where [6] appears, read: purified HLA, radiolabeled peptide competition, nM, read-out: binding to DRB1*12:01 (IC50).
Setting [7] is: purified HLA, radiolabeled peptide competition, nM, read-out: binding to DRB1*09:01 (IC50).

Residue numbers refer to the chain shown, from its start. Where two headings read alike, the source gives them in different places.

As usually defined, the IC50 is the concentration at which inhibition is half-maximal. `CSCC[C@H](NC(=O)[C@H](CCC(=O)O)NC(=O)[C@H](Cc1ccc(O)cc1)NC(=O)[C@H](C)NC(=O)[C@H](CCC(=O)O)NC(=O)[C@H](CC(N)=O)NC(=O)[C@@H](N)CC(=O)O)C(=O)N1CCC[C@H]1C(=O)N[C@@H](CO)C(=O)N[C@@H](CCC(=O)O)C(=O)N[C@@H](CCC(=O)O)C(=O)NCC(=O)N[C@@H](Cc1ccc(O)cc1)C(=O)N[C@@H](CCC(N)=O)C(=O)N[C@@H](CC(=O)O)C(=O)O`: the IC50 is above 10000 nM on DPB1*05:01; above 10000 nM at DRB1*01:01; 1940 nM on DRB1*04:05; above 10000 nM at DPB1*03:01; above 10000 nM on DRB4*01:01; above 10000 nM on DPB1*04:02. In addition, the IC50 is above 10000 nM on DRB1*07:01; above 10000 nM on DRB1*13:02; above 10000 nM at DRB1*12:01; above 10000 nM at DPB1*04:01; 4600 nM at DRB1*09:01.
Regarding `CSCC[C@H](NC(=O)[C@H](CCC(=O)O)NC(=O)[C@H](Cc1ccc(O)cc1)NC(=O)[C@H](C)NC(=O)[C@H](CCC(=O)O)NC(=O)[C@H](CC(N)=O)NC(=O)[C@@H](N)CC(=O)O)C(=O)N1CCC[C@H]1C(=O)N[C@@H](COP(=O)(O)O)C(=O)N[C@@H](CCC(=O)O)C(=O)N[C@@H](CCC(=O)O)C(=O)NCC(=O)N[C@@H](Cc1ccc(O)cc1)C(=O)N[C@@H](CCC(N)=O)C(=O)N[C@@H](CC(=O)O)C(=O)O`, the IC50 on DPB1*05:01 (purified HLA, radiolabeled peptide competition, nM, read-out: binding to DPB1*05:01 (IC50)) is above 10000 nM; on DRB1*01:01 (setting [1]) it was above 10000 nM; at DRB1*04:05 (setting [2]) it was above 10000 nM; on DPB1*03:01 (purified HLA, radiolabeled peptide competition, nM, read-out: binding to DPB1*03:01 (IC50)), above 10000 nM; on DRB4*01:01 (setting [3]), above 10000 nM; on DPB1*04:02 (purified HLA, radiolabeled peptide competition, nM, read-out: binding to DPB1*04:02 (IC50)) it was above 10000 nM. In addition, the 50% inhibitory concentration (IC50) on DRB1*07:01 (setting [4]) is above 10000 nM; on DRB1*13:02 (setting [5]), above 10000 nM; at DRB1*12:01 (setting [6]), above 10000 nM; at DPB1*04:01 (purified HLA, radiolabeled peptide competition, nM, read-out: binding to DPB1*04:01 (IC50)) it was above 10000 nM; at DRB1*09:01 (setting [7]), above 10000 nM.
Consider `CSCC[C@H](NC(=O)[C@@H](N)CCC(=O)O)C(=O)N1CCC[C@H]1C(=O)N[C@@H](COP(=O)(O)O)C(=O)N[C@@H](CCC(=O)O)C(=O)N[C@@H](CCC(=O)O)C(=O)NCC(=O)N[C@@H](Cc1ccc(O)cc1)C(=O)N[C@@H](CCC(N)=O)C(=O)N[C@@H](CC(=O)O)C(=O)N[C@@H](Cc1ccc(O)cc1)C(=O)N[C@@H](CCC(=O)O)C(=O)N1CCC[C@H]1C(=O)N[C@@H](CCC(=O)O)C(=O)N[C@@H](C)C(=O)O`, for which the IC50 at DPB1*05:01, on DRB1*01:01 (setting [1]), on DRB1*04:05 (setting [2]), at DPB1*03:01, at DRB4*01:01 (setting [3]) and on DPB1*04:02 was above 10000 nM each time. Also, the IC50 at DRB1*07:01 (setting [4]), at DRB1*13:02 (setting [5]), on DRB1*12:01 (setting [6]), at DPB1*04:01 and at DRB1*09:01 (setting [7]) was above 10000 nM in each case.

(Values after patent US20200095296A1, “USE OF PEPTIDES AS BIOMARKERS IN THE DIAGNOSIS, CONFIRMATION AND TREATMENT OF A NEUROLOGICAL DISORDER AND TCR AND/OR HLA IMMUNOPROFILING IN NEURODEGENERATIVE DISEASE” (THE TRUSTEES OF COLUMBIA UNIVERSITY IN THE CITY OF NEW YORK, priority 2017, published 2020).)
